# ChEMBL document CHEMBL3102722, “Diarylacylhydrazones: Clostridium-selective antibacterials with activity against stationary-phase cells” (Bioorg Med Chem Lett, 2014)
# Active and inactive are the calls of the source. No cut-off for these calls is given here.
# Columns and labels:
# Clostridioides difficile [1] = experiment: Antibacterial activity against Clostridium difficile CD196 assessed as growth inhibition after 20 to 24 hrs; type: functional
# Bifidobacterium longum = experiment: Antibacterial activity against Bifidobacterium longum ATCC BAA-999 assessed as growth inhibition after 20 to 24 hrs; type: functional
# Lacticaseibacillus casei = experiment: Antibacterial activity against Lactobacillus casei ATCC 334 assessed as growth inhibition after 20 to 24 hrs; type: functional
# [2] = tested on: Bacteroides thetaiotaomicron; experiment: Antibacterial activity against Bacteroides thetaiotaomicron ATCC 29148 assessed as growth inhibition after 20 to 24 hrs; type: functional
# [3] = tested on: Limosilactobacillus reuteri; experiment: Antibacterial activity against Lactobacillus reuteri ATCC 23272 assessed as growth inhibition after 20 to 24 hrs; type: functional
# Escherichia coli = experiment: Antibacterial activity against Escherichia coli ATCC 700927 assessed as growth inhibition after 20 to 24 hrs; type: functional
# Bacteroides fragilis = experiment: Antibacterial activity against Bacteroides fragilis ATCC 25285 assessed as growth inhibition after 20 to 24 hrs; type: functional; details: NCTC 9343
# Streptococcus mutans = experiment: Antibacterial activity against Streptococcus mutans ATCC 700610 assessed as growth inhibition after 20 to 24 hrs; type: functional
# Enterococcus faecalis = experiment: Antibacterial activity against Enterococcus faecalis ATCC 47077 assessed as growth inhibition after 20 to 24 hrs; type: functional
# Staphylococcus aureus = experiment: Antibacterial activity against Staphylococcus aureus 8325-4 assessed as growth inhibition after 20 to 24 hrs; type: functional
# Clostridium perfringens = experiment: Antibacterial activity against Clostridium perfringens ATCC 13124 assessed as growth inhibition after 20 to 24 hrs; type: functional
# Clostridioides difficile [4] = experiment: Antibacterial activity against stationary phase of Clostridium difficile CD196 assessed as cell killing at 1 to 20 X MIC after 3 to 6 hrs; type: functional
# Clostridioides difficile [5] = experiment: Bactericidal activity against Clostridium difficile CD196 after 20 to 24 hrs; type: functional; details: read-out: MBC99.9
# FaDu = experiment: Cytotoxicity against human FADU cells assessed as concentration required to decrease cell viability incubated for 24 hrs followed by compound washout measured after 18 hrs by resazurin dye-based assay
# [6] = Cytotoxicity against human HepG2 cells assessed as concentration required to decrease cell viability incubated for 24 hrs followed by compound washout measured after 18 hrs by resazurin dye-based assay; details: read-out: Activity
# Clostridioides difficile [7] = experiment: Antibacterial activity against Clostridium difficile GC1 clinical isolate assessed as growth inhibition after 20 to 24 hrs; type: functional
# Clostridioides difficile [8] = experiment: Antibacterial activity against Clostridium difficile VPI clinical isolate assessed as growth inhibition after 20 to 24 hrs; type: functional
# Clostridioides difficile [9] = experiment: Antibacterial activity against Clostridium difficile 10463 clinical isolate assessed as growth inhibition after 20 to 24 hrs; type: functional
# [10] = Antibacterial activity against Clostridium difficile 630 clinical isolate assessed as growth inhibition after 20 to 24 hrs; type: functional, Clostridioides difficile 630; details: Clostridioides difficile
# Clostridioides difficile [11] = experiment: Antibacterial activity against Clostridium difficile UK6 clinical isolate assessed as growth inhibition after 20 to 24 hrs; type: functional
# Clostridioides difficile [12] = experiment: Antibacterial activity against Clostridium difficile UK1 clinical isolate assessed as growth inhibition after 20 to 24 hrs; type: functional
SMILES,MIC (Clostridioides difficile [1]) [µg/mL],MIC (Bifidobacterium longum) [µg/mL],MIC (Lacticaseibacillus casei) [µg/mL],MIC [2] [µg/mL],MIC [3] [µg/mL],MIC (Escherichia coli) [µg/mL],MIC (Bacteroides fragilis) [µg/mL],MIC (Streptococcus mutans) [µg/mL],MIC (Enterococcus faecalis) [µg/mL],MIC (Staphylococcus aureus) [µg/mL],MIC (Clostridium perfringens) [µg/mL],also measured
O=C(N/N=C/c1c(O)ccc2ccccc12)c1cccc([N+](=O)[O-])c1,> 50,–,–,–,–,–,–,–,–,–,–,–
O=C(N/N=C/c1c(O)ccc2ccccc12)c1cccc(Br)c1,6.25,–,–,–,–,–,–,–,–,–,–,–
COc1cccc(/C=N/NC(=O)c2cc(C)nc3ccc(Br)cc23)c1,> 50,> 50,> 50,> 50,> 50,> 50,> 50,> 50,> 50,> 50,> 50,–
O=C(N/N=C/c1c(OCc2cccc(Br)c2)ccc2ccccc12)c1ccccc1,> 50,–,–,–,–,–,–,–,–,–,–,–
Oc1ccc2ccccc2c1/C=N/Nc1ccccc1,> 50,–,–,–,–,–,–,–,–,–,–,–
Cc1ccc(C(=O)N/N=C/c2c(O)ccc3ccccc23)cc1,6.25,> 50,> 50,25,> 50,> 50,12.5,> 50,> 50,> 50,1.56,Activity (Clostridioides difficile [4]): Active; MBC (Clostridioides difficile [5]): 6.25 µg/mL; Activity (FaDu): > 100 µg/mL; MCC at 24 h [6]: > 100 µg/mL
COc1ccc2ccccc2c1/C=N/N(C)C(=O)c1ccc(C)cc1,> 50,> 50,> 50,> 50,> 50,> 50,> 50,> 50,> 50,> 50,> 50,–
COc1cccc(/C=N/NC(=O)c2cc(C)n[nH]2)c1O,> 50,> 50,> 50,> 50,> 50,> 50,> 50,> 50,> 50,> 50,> 50,–
Cc1cccc(/C=N/NC(=O)c2ccc(-c3ccccc3)cc2)c1,> 50,–,–,–,–,–,–,–,–,–,–,–
Clc1ccc(COC(Cn2ccnc2)c2ccc(Cl)cc2Cl)c(Cl)c1 (centres undefined) [MICONAZOLE],–,–,–,–,–,–,–,–,–,–,–,Activity (FaDu): 50 µg/mL; MCC at 24 h [6]: 50 µg/mL
Cc1cc(C(=O)N/N=C/c2c(O)ccc3ccccc23)c2cc(Br)ccc2n1,> 50,> 50,> 50,> 50,> 50,> 50,> 50,> 50,> 50,> 50,25,–
COc1cccc(/C=N/NC(=O)c2cc(C)nc3ccc(Br)cc23)c1O,6.25,> 50,> 50,> 50,> 50,> 50,> 50,> 50,> 50,> 50,6.25,–
O=C(CO)N/N=C/c1cccc2ccccc12,> 50,–,–,–,–,–,–,–,–,–,–,–
Oc1c(Cl)c(Cl)c(Cl)c(Cl)c1Cl [PENTACHLOROPHENOL],50,12.5,50,6.25,50,> 50,6.25,25,> 50,< 0.78,6.25,–
Cc1ncc([N+](=O)[O-])n1CCO [METRONIDAZOLE],1.56,≤ 0.78,> 50,≤ 0.78,> 50,> 50,≤ 0.78,> 50,> 50,> 50,3.13,Activity (Clostridioides difficile [4]): inactive; Activity (FaDu): > 200 µg/mL; MCC at 24 h [6]: > 200 µg/mL
CN[C@H](CC(C)C)C(=O)N[C@H]1C(=O)N[C@@H](CC(N)=O)C(=O)N[C@H]2C(=O)N[C@H]3C(=O)N[C@H](C(=O)N[C@H](C(=O)O)c4cc(O)cc(O)c4-c4cc3ccc4O)[C@H](O)c3ccc(c(Cl)c3)Oc3cc2cc(c3O[C@@H]2O[C@H](CO)[C@@H](O)[C@H](O)[C@H]2O[C@H]2C[C@](C)(N)[C@H](O)[C@H](C)O2)Oc2ccc(cc2Cl)[C@H]1O [VANCOMYCIN],1,≤ 0.78,> 50,12.5,> 50,> 50,12.5,1.56,3.13,3.13,≤ 0.78,Activity (Clostridioides difficile [4]): inactive; MIC (Clostridioides difficile [7]): 1.5 µg/mL; MIC (Clostridioides difficile [8]): 1.5 µg/mL; MIC (Clostridioides difficile [9]): 1.5 µg/mL; MIC [10]: 0.75 µg/mL; Activity (FaDu): > 200 µg/mL; MIC (Clostridioides difficile [11]): 0.75 µg/mL; MCC at 24 h [6]: > 200 µg/mL; MIC (Clostridioides difficile [12]): 1.5 µg/mL
O=C(N/N=C/c1c(O)ccc2ccccc12)c1ccccc1,6.25,–,–,–,–,–,–,–,–,–,–,–
